From patent US10183944B2 (Asana Biosciences, LLC, priority 2011, dated 2019)
pIC50: −log10 of the molar value.

Target: Syk (356-635 amino acids) catalytic domain (Homo sapiens (Human), UniProt P43405)
Assay: Inhibition of enzymatic Syk kinase activity (radiometric)
Assay type: biochemical
Conditions: read-out: IC50 Syk
From the text: The objective of this assay was to examine by radiometric method the ability of compounds to inhibit Syk kinase enzyme. Syk is capable of phosphorylating substrates such as VAV, LAT, SLP-76, which in turn activate MAPK, PLCγ signaling pathways. […] This in vitro assay tests the ability of syk to phosphorylate a substrate peptide in the presence of ATP. By using a radio-labeled form of ATP, it is possible to measure the amount of phosphorylation of the substrate. The enzyme transfers a radio-labeled phosphate group from γ32 P labeled ATP to pG4T. Briefly the enzyme was incubated with substrate, radio-labeled & cold ATP and substrate in buffer with or without compounds. At the end of the reaction, the reaction mixture was transferred on to a Multiscreen filter plate and unreacted γ^32P ATP was washed off. The filter plate was dried and the radioactivity was measured on a scintillation counter to estimate the incorporated radioactivity on the substrate. The percent inhibition of activity of the enzyme was calculated by comparing counts in the presence and absence of compounds. […] 2.5 μL of 10% DMSO or compound in 10% DMSO was added to the wells in a 96 well V-bottom plate. Optimized concentration of in-house Syk enzyme (different batches of Syk (356-635) kinase domain) were used at optimized concentrations) ranging from 0.035 ng to 7.5 ng/reaction diluted in assay buffer was added to a total volume of 12.5 μL). Compound and protein were incubated for 30 minutes at room temperature on a plate shaker. Ten μL of a substrate mix containing 100 μM ATP (0.25 μL), γ-P^32-ATP (0.1 μL; 10 μCi/μL), pG4T (0.25 μL; 10 mg/mL) and 1× assay buffer (9.4 μL) was added to all the wells. Samples were incubated at 30° C. for 10 minutes after mixing. The reaction was stopped by the addition of 8N HCl (13 μL) containing 100 mM ATP. Thirty μL of sample was transferred to the center of a 2×2 cm^2 Whatman® P81 chromatography paper. After allowing the sample to dry for one minute, the assay squares were washed 3 times for 5 minutes each in ortho-phosphoric acid (0.5%) and once in acetone. Assay squares were dried for 15 minutes in a 30° C. oven and transferred to 96 well optiplate. Microscint-O® reagent (100 μL, Perkin Elmer) was added to each well, the plate was sealed with Topseal®-A microplates and incubated for 10 minutes at room temperature at very low speed on rocker and the plate was read in the Topcount® NXL instrument. The following calculations were made: Fold induction=radioactivity counts (uncorrected values) in positive control/substrate control.

Q: With COc1cc(Nc2nc(N3CCCCCC3)nc3cn[nH]c(=O)c23)cc(OC)c1OC [Example 67, 2-(azepan-1-yl)-4-((3,4,5-trimethoxyphenyl)amino)pyrimido[4,5-d]pyridazin-5(6H)-one] as the compound, how does the pIC50 read?
A: < 7.00

Q: With N#CCN1CCN(c2nc(Nc3ccc(N4CCC5(CC4)CC5C(=O)O)cc3)c3c(=O)[nH]ncc3n2)CC1 (stereo not drawn) [Example 73, 6-(4-((2-(4-(cyanomethyl)piperazin-1-yl)-5-oxo-5,6-dihydropyrimido[4,5-d]pyridazin-4-yl)amino)phenyl)-6-azaspiro[2.5]octane-1-carboxylic acid] as the compound, how does the pIC50 read?
A: > 7.00

Q: N#CC1CCN(c2nc(Nc3ccc(N4CCC5(CC4)CC5C(=O)O)cc3)c3c(=O)[nH]ncc3n2)CC1 (stereo not drawn) [Example 74, 6-(4-((2-(4-cyanopiperidin-1-yl)-5-oxo-5,6-dihydropyrimido[4,5-d]pyridazin-4-yl)amino)phenyl)-6-azaspiro[2.5]octane-1-carboxylic acid] was tested. Which pIC50 did it give?
A: < 7.00

Q: How did the pIC50 turn out when N#CC1CCN(c2nc(Nc3ccc(N4CCC(CC(=O)O)CC4)cc3)c3c(=O)[nH]ncc3n2)CC1 [Example 75, 2-(1-(4-((2-(4-cyanopiperidin-1-yl)-5-oxo-5,6-dihydropyrimido[4,5-d]pyridazin-4-yl)amino)phenyl)piperidin-4-yl)acetic acid] was run?
A: > 7.00

Q: How did the pIC50 turn out when N#CC1CCN(c2nc(Nc3ccc(CN4CCC(C(=O)O)CC4)cc3)c3c(=O)[nH]ncc3n2)CC1 [Example 76, 1-(4-((2-(4-cyanopiperidin-1-yl)-5-oxo-5,6-dihydropyrimido[4,5-d]pyrimido[4,5-d]pyridazin-4-yl)amino)benzyl)piperidine-4-carboxylic acid] was run?
A: < 7.00

Q: How did the pIC50 turn out when N#CCC1CCN(c2nc(Nc3ccc(CN4CCC(C(=O)O)CC4)cc3)c3c(=O)[nH]ncc3n2)CC1 [Example 78, 1-(4-((2-(4-(cyanomethyl)piperidin-1-yl)-5-oxo-5,6-dihydropyrimido[4,5-d]pyridazin-4-yl)amino)benzyl)piperidine-4-carboxylic acid] was run?
A: > 7.00

Q: With N#CCC1CCN(c2ccc(Nc3nc(-c4ccccc4)nc4cn[nH]c(=O)c34)cc2)CC1 [Example 82, 2-(1-(4-((5-oxo-2-phenyl-5,6-dihydropyrimido[4,5-d]pyridazin-4-yl)amino)phenyl)piperidin-4-yl)acetonitrile] as the compound, how does the pIC50 read?
A: < 7.00

Q: O=C(O)CC1CCN(c2ccc(Nc3nc(C4CCCCCC4)nc4cn[nH]c(=O)c34)cc2)CC1 [Example 90, 2-(1-(4-((2-cycloheptyl-5-oxo-5,6-dihydropyrimido[4,5-d]pyridazin-4-yl)amino)phenyl)piperidin-4-yl)acetic acid] was tested. Which pIC50 did it give?
A: > 7.00

Q: With O=c1[nH]ncc2nc(-c3ccccc3)nc(Nc3ccc(OCCN4CCOCC4)cc3)c12 [Example 94, 4-((4-(2-morpholinoethoxy)phenyl)amino)-2-phenylpyrimido[4,5-d]pyridazin-5(6H)-one] as the compound, how does the pIC50 read?
A: > 7.00

Q: With N#CCC1CCN(c2ccc(Nc3nc(N4CCCCCC4)nc4cn[nH]c(=O)c34)cn2)CC1 [Example 97, 2-(1-(5-((2-(azepan-1-yl)-5-oxo-5,6-dihydropyrimido[4,5-d]pyridazin-4-yl)amino)pyridin-2-yl)piperidin-4-yl) acetonitrile] as the compound, how does the pIC50 read?
A: < 7.00

Q: With CC(C)(C#N)N1CCN(c2ccc(Nc3nc(N4CCCCCC4)nc4cn[nH]c(=O)c34)cc2)CC1 [Example 111, 2-(4-(4-((2-(azepan-1-yl)-5-oxo-5,6-dihydropyrimido[4,5-d]pyridazin-4-yl)amino)phenyl)piperazin-1-yl)-2-methylpropanenitrile] as the compound, how does the pIC50 read?
A: > 7.30

Q: CC(C)(C#N)C1CCN(c2ccc(Nc3nc(-c4ccccc4)nc4cn[nH]c(=O)c34)cc2)CC1 [Example 119, 2-methyl-2-(1-(4-((5-oxo-2-phenyl-5,6-dihydropyrimido[4,5-d]pyridazin-4-yl)amino)phenyl)piperidin-4-yl) propanenitrile] was tested. Which pIC50 did it give?
A: < 7.00

Q: With O=c1[nH]ncc2nc(-c3ccccc3)nc(Nc3ccc(OC[C@@H]4CO[C@@H](CO)CO4)cc3)c12 [Example 122, 4-((4-(((2S,5S)-5-(hydroxymethyl)-1,4-dioxan-2-yl)methoxy)phenyl)amino)-2-phenylpyrimido[4,5-d]pyridazin-5(6H)-one] as the compound, how does the pIC50 read?
A: < 7.00

Q: With O=C(O)C1CC12CCN(c1ccc(Nc3nc(-c4ccccc4)nc4cn[nH]c(=O)c34)cn1)CC2 (stereo not drawn) [Example 137, 6-(5-((5-oxo-2-phenyl-5,6-dihydropyrimido[4,5-d]pyridazin-4-yl)amino)pyridin-2-yl)-6-azaspiro[2.5]octane-1-carboxylic acid] as the compound, how does the pIC50 read?
A: < 7.00

Q: O=C(O)C1CC12CCN(c1ccc(Nc3nc(-c4ccncc4)nc4cn[nH]c(=O)c34)cc1)CC2 (stereo not drawn) [Example 138, 6-(4-((5-oxo-2-(pyridin-4-yl)-5,6-dihydropyrimido[4,5-d]pyridazin-4-yl)amino)phenyl)-6-azaspiro[2.5]octane-1-carboxylic acid] was tested. Which pIC50 did it give?
A: < 7.00

Q: N#CC1CCN(c2nc(Nc3ccc(OCCN4CCNCC4)cc3)c3c(=O)[nH]ncc3n2)CC1 [Example 149, 1-(5-oxo-4-((4-(2-(piperazin-1-yl)ethoxy)phenyl)amino)-5,6-dihydropyrimido[4,5-d]pyridazin-2-yl)piperidine-4-carbonitrile] was tested. Which pIC50 did it give?
A: < 7.00

Q: COc1cccc(-c2nc(Nc3ccc(N4CCC(CC#N)CC4)cc3)c3c(=O)[nH]ncc3n2)c1 [Example 163, 2-(1-(4-((2-(3-methoxyphenyl)-5-oxo-5,6-dihydropyrimido[4,5-d]pyridazin-4-yl)amino)phenyl)piperidin-4-yl)acetonitrile] was tested. Which pIC50 did it give?
A: < 7.00

Q: How did the pIC50 turn out when O=c1[nH]ncc2nc(N3CCOCC3)nc(Nc3ccc(OCCN4CCNCC4)cc3)c12 [Example 176, 2-morpholino-4-((4-(2-(piperazin-1-yl)ethoxy)phenyl)amino)pyrimido[4,5-d]pyridazin-5(6H)-one] was run?
A: < 7.00

Q: How did the pIC50 turn out when CC1CN(c2nc(Nc3ccc(OCCN4CCNCC4)cc3)c3c(=O)[nH]ncc3n2)CC(C)O1 (stereo not drawn) [Example 177, 2-(2,6-dimethylmorpholino)-4-((4-(2-(piperazin-1-yl)ethoxy)phenyl)amino) pyrimido[4,5-d]pyridazin-5(6H)-one] was run?
A: < 7.00

Q: O=c1[nH]ncc2nc(N3CCCCCC3)nc(Nc3ccc(N4CCC(CCCO)CC4)cc3)c12 [Example 194, 2-(azepan-1-yl)-4-((4-(4-(3-hydroxypropyl)piperidin-1-yl)phenyl)amino)pyrimido[4,5-d]pyridazin-5(6H)-one] was tested. Which pIC50 did it give?
A: < 7.00

Q: With N#CCC1CCN(CCN2CCC(Nc3nc(N4CCCCCC4)nc4cn[nH]c(=O)c34)CC2)CC1 [Example 204, 2-(1-(2-(4-((2-(azepan-1-yl)-5-oxo-5,6-dihydropyrimido[4,5-d]pyridazin-4-yl)amino)piperidin-1-yl)ethyl)piperidin-4-yl)acetonitrile] as the compound, how does the pIC50 read?
A: < 7.00

Q: With CCn1nnc(-c2ccc(Nc3nc(N4CCCCCC4)nc4cn[nH]c(=O)c34)cc2)n1 [Example 225, 2-(azepan-1-yl)-4-((4-(2-ethyl-2H-tetrazol-5-yl)phenyl)amino)pyrimido[4,5-d]pyridazin-5(6H)-one] as the compound, how does the pIC50 read?
A: < 7.00

Q: How did the pIC50 turn out when CCn1nnc(-c2ccc(Nc3nc(N4CCC(CC#N)CC4)nc4cn[nH]c(=O)c34)cc2)n1 [Example 226, 2-(1-(4-((4-(2-ethyl-2H-tetrazol-5-yl)phenyl)amino)-5-oxo-5,6-dihydropyrimido[4,5-d]pyridazin-2-yl)piperidin-4-yl)acetonitrile] was run?
A: < 7.00

Q: How did the pIC50 turn out when N#CCN1CCN(c2nc(Nc3ccc(OCCN4CCNCC4)cc3)c3c(=O)[nH]ncc3n2)CC1 [Example 230, 2-(4-(5-oxo-4-((4-(2-(piperazin-1-yl)ethoxy)phenyl)amino)-5,6-dihydropyrimido[4,5-d]pyridazin-2-yl)piperazin-1-yl)acetonitrile] was run?
A: < 7.00

Q: With N#CCC1CCN(c2nc(Nc3ccc(-c4nnn(CC(=O)O)n4)cc3)c3c(=O)[nH]ncc3n2)CC1 [Example 241, 2-(5-(4-((2-(4-(cyanomethyl)piperidin-1-yl)-5-oxo-5,6-dihydropyrimido[4,5-d]pyridazin-4-yl)amino)phenyl)-2H-tetrazol-2-yl)acetic acid] as the compound, how does the pIC50 read?
A: < 7.00

Q: With N#CCC1CCN(c2nc(Nc3ccc(N4CCN(CCN)CC4)cc3)c3c(=O)[nH]ncc3n2)CC1 [Example 257, 2-(1-(4-((4-(4-(2-aminoethyl)piperazin-1-yl)phenyl)amino)-5-oxo-5,6-dihydropyrimido[4,5-d]pyridazin-2-yl)piperidin-4-yl)acetonitrile] as the compound, how does the pIC50 read?
A: > 8.00

Q: O=c1[nH]ncc2nc(N3CCCCCC3)nc(Nc3ccc(N4CCC5(CC4)CC5CO)cc3)c12 (stereo not drawn) [Example 258, 2-(azepan-1-yl)-4-((4-(1-(hydroxymethyl)-6-azaspiro[2.5]octan-6-yl)phenyl)amino) pyrimido[4,5-d]pyridazin-5(6H)-one] was tested. Which pIC50 did it give?
A: > 7.00
